Results on 60 compounds are retold here after the Kinase Knowledgebase extract (Sharma et al. 2016).

Where only a bound is given, the exact number is not on record here.

Assay [1] addresses EGFR (human) (UniProt P00533). The conditions noted are these: a431.
Assay [2] deals with EGFR (UniProt P00533).

A word on the IC50: it is the concentration that gives 50% inhibition. A low value points to greater potency.

EGFR (human), sequence (P00533 whole entry, looked up): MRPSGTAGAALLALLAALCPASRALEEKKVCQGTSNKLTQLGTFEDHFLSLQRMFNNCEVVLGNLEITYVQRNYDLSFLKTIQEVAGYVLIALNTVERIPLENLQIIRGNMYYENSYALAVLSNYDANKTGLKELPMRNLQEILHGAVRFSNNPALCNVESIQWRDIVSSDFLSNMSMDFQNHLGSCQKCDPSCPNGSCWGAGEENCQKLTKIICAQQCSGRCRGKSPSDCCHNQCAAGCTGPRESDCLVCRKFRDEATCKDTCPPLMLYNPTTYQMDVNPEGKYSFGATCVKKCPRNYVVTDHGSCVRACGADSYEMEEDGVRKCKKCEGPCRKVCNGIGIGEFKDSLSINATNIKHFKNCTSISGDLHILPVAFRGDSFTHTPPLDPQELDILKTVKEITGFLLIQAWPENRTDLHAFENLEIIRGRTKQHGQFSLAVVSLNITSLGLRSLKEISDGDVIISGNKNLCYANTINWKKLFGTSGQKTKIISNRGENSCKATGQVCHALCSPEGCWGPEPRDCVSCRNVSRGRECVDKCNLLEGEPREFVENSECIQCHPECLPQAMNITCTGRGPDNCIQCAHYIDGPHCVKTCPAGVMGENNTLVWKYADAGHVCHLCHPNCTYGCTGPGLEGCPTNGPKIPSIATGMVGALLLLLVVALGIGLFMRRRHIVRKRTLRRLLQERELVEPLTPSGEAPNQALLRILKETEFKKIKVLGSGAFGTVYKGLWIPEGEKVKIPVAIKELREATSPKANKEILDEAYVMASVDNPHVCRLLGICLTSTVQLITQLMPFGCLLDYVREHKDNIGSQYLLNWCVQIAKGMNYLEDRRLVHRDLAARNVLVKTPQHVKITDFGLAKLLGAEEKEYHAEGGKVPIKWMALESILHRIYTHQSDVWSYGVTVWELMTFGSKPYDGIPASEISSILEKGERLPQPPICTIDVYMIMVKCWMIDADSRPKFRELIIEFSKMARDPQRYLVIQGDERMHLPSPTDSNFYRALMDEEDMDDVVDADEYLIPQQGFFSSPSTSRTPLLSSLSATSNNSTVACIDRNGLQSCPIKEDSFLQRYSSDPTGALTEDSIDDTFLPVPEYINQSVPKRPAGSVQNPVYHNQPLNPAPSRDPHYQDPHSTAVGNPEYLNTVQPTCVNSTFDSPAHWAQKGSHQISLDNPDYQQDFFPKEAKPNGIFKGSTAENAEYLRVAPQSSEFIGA
EGFR, sequence (P00533 whole entry, looked up): as above

In assay [1], `COc1cc2nccc(Oc3cccc(C(C)=O)c3)c2cc1OC` yielded an IC50 greater than 100 µM.

In assay [1], `COc1cc2nccc(Oc3ccc(NC(=O)c4ccc(Br)cc4)cc3)c2cc1OC` showed an IC50 of 48 µM.

For `COc1cc2nccc(Oc3cccc(C(=O)c4ccccc4)c3)c2cc1OC`, the IC50 in assay [1] turned out to be 89 µM.

In turn, `COc1cc2nccc(Oc3ccc(NC(C)=O)cc3)c2cc1OC` displayed an IC50 in assay [1] greater than 100 µM.

Consider `COc1cc2nccc(Oc3ccc(NC(=O)C4CCCCC4)cc3)c2cc1OC`, for which, in assay [1], the IC50 was greater than 100 µM.

Take `COc1cc2nccc(Oc3ccc(C(=O)c4cccc(F)c4)cc3)c2cc1OC`: the IC50 in assay [1] was 28 µM.

The compound `COc1cc2nccc(Oc3ccccc3N)c2cc1OC` returned an IC50 in assay [1] of less than 10 µM.

In assay [1], `COc1cc2nccc(Oc3ccc(C(=O)C4CCCCC4)cc3)c2cc1OC` showed an IC50 greater than 100 µM.

`COc1cc2nccc(Oc3c(OC)cccc3OC)c2cc1OC`: the IC50 in assay [1] stood at 81 µM.

`COc1cc2nccc(Oc3ccc(C(=O)c4ccc(C(F)(F)F)cc4)cc3)c2cc1OC`: the IC50 in assay [1] was greater than 100 µM.

Regarding `COc1cc2nccc(Oc3ccc(C(=O)c4ccc(Br)cc4)cc3)c2cc1OC`, the IC50 in assay [1] was greater than 100 µM.

In turn, `COc1cc2nccc(Oc3ccc(N(C)C(=O)c4ccc(C(C)(C)C)cc4)cc3)c2cc1OC` had an IC50 in assay [1] of 6 µM.

The compound `COc1cc2nccc(Oc3ccc(NC(=O)c4ccc(C(C)=O)cc4)cc3)c2cc1OC` came in with an IC50 in assay [1] greater than 100 µM.

For `COc1cc2nccc(Oc3ccc(C(=O)c4ccc(C#N)cc4)cc3)c2cc1OC`, the IC50 in assay [1] was greater than 100 µM.

In turn, `CCCCc1ccc(C(=O)Nc2ccc(Oc3ccnc4cc(OC)c(OC)cc34)cc2)cc1` had an IC50 in assay [1] greater than 100 µM.

Take `COc1cc2nccc(Oc3ccccc3OC)c2cc1OC`: the IC50 in assay [1] was 92 µM.

For `COc1cc(OC)cc(Oc2ccnc3cc(OC)c(OC)cc23)c1`, in assay [1], the IC50 turned out to be 49 µM.

`COc1cc2nccc(Oc3ccc(NC(=O)C4CCCC4)cc3)c2cc1OC`: the IC50 in assay [1] was greater than 100 µM.

In assay [1], `COc1cc2nccc(Oc3ccc(C(=O)c4ccco4)cc3)c2cc1OC` registered an IC50 greater than 100 µM.

In assay [1], `COc1cc2nccc(Oc3ccc(C(=O)c4ccc([N+](=O)[O-])cc4)cc3)c2cc1OC` gave an IC50 greater than 100 µM.

In turn, `COc1cc2nccc(Oc3ccc(NC(=O)c4cccs4)cc3)c2cc1OC` displayed an IC50 in assay [1] greater than 100 µM.

For the compound `COc1cc2nccc(Oc3ccc(C(=O)Nc4ccc(C(C)(C)C)cc4)cc3)c2cc1OC`, the IC50 in assay [1] turned out to be 30 µM.

Take `COc1cc2nccc(Oc3ccc(C(=O)c4ccc(C)cc4)cc3)c2cc1OC`: the IC50 in assay [1] was greater than 100 µM.

On to `COc1cc2nccc(Oc3cccc(OC)c3OC)c2cc1OC`, for which the IC50 in assay [1] is greater than 100 µM.

Take `COc1cc2nccc(Oc3ccc(C(=O)c4ccc(-c5ccccc5)cc4)cc3)c2cc1OC`: the IC50 in assay [1] was greater than 100 µM.

In turn, `CCCCOc1ccc(C(=O)Nc2ccc(Oc3ccnc4cc(OC)c(OC)cc34)cc2)cc1` registered an IC50 in assay [1] greater than 100 µM.

As to `COc1cc2nccc(Oc3cccc(C)c3)c2cc1OC`, the IC50 in assay [1] amounted to 14 µM.

The compound `COc1cc2nccc(Oc3ccc(C(=O)c4cccs4)cc3)c2cc1OC` yielded an IC50 in assay [1] of 16 µM.

As for `COc1cc2nccc(Oc3ccc(Br)cc3)c2cc1OC`, the IC50 in assay [1] was found to be 20 µM.

The compound `COc1cc2nccc(Oc3ccc(NC(=O)c4ccc([N+](=O)[O-])cc4)cc3)c2cc1OC` returned an IC50 in assay [1] greater than 100 µM.

Take `COc1cc2nccc(Oc3ccc(O)cc3)c2cc1OC`: the IC50 in assay [1] was 16 µM.

`COc1cc2nccc(Oc3cccc(F)c3)c2cc1OC`: in assay [1], the IC50 worked out at 24 µM.

As for `COc1cc2nccc(Oc3ccc(C(=O)c4ccc(OC(F)(F)F)cc4)cc3)c2cc1OC`, the IC50 in assay [1] was greater than 100 µM.

Take `COc1cc2nccc(Oc3ccc(N)cc3)c2cc1OC`: the half-inhibitory concentration (IC50) in assay [1] is greater than 100 µM.

In the case of `COc1cc2nccc(Oc3ccc(C(=O)c4ccc(C(C)(C)C)cc4)cc3)c2cc1OC`, the IC50 in assay [1] and in assay [2] was greater than 100 µM throughout.

For the compound `COc1cc2nccc(Oc3ccc(C(=O)c4ccccc4C(F)(F)F)cc3)c2cc1OC`, the IC50 in assay [1] is 21 µM.

Take `COc1ccc(Oc2ccnc3cc(OC)c(OC)cc23)cc1`: in assay [1], the IC50 is 44 µM.

`CCCCc1ccc(C(=O)c2ccc(Oc3ccnc4cc(OC)c(OC)cc34)cc2)cc1`: the IC50 in assay [1] is greater than 100 µM.

The compound `COc1cc2nccc(Oc3cccc(NC(=O)c4ccc(C(C)(C)C)cc4)c3)c2cc1OC` showed an IC50 in assay [1] of 0.65 µM.

As for `COc1cc2nccc(Oc3ccc(C(=O)c4ccc(F)cc4)cc3)c2cc1OC`, in assay [1], the IC50 turned out to be 75 µM.

Compound `COc1ccc(C(=O)Nc2ccc(Oc3ccnc4cc(OC)c(OC)cc34)cc2)cc1OC` yielded an IC50 in assay [1] greater than 100 µM.

With `COc1cc2nccc(Oc3cccc([N+](=O)[O-])c3)c2cc1OC`, the IC50 in assay [1] worked out at 35 µM.

Take `COc1cc2nccc(Oc3ccc(NC(=O)c4ccc(C(C)(C)C)cc4)cc3)c2cc1OC`: the IC50 in assay [1] and in assay [2] was greater than 100 µM throughout.

In turn, `COc1cc2nccc(Oc3ccc(C(=O)c4cccc(C(F)(F)F)c4)cc3)c2cc1OC` showed an IC50 in assay [1] greater than 100 µM.

In turn, `COc1cc2nccc(Oc3ccc(C(=O)c4ccccc4C)cc3)c2cc1OC` came in with an IC50 in assay [1] of 43 µM.

As to `COc1cc2nccc(Oc3ccc(NC(=O)c4ccc(C(F)(F)F)cc4)cc3)c2cc1OC`, in assay [1], the IC50 is 93 µM.

In assay [1], `COc1cc2nccc(Oc3ccc(C(C)=O)cc3)c2cc1OC` came in with an IC50 greater than 100 µM.

With `COc1cc2nccc(Oc3ccccc3)c2cc1OC`, the IC50 in assay [1] is 50 µM.

In the case of `COc1cc2nccc(Oc3ccc(C(=O)c4cccc(C)c4)cc3)c2cc1OC`, the IC50 in assay [1] turned out to be 95 µM.

The compound `COc1cc2nccc(Oc3ccc(C(=O)c4ccc(Cl)c(Cl)c4)cc3)c2cc1OC` registered an IC50 in assay [1] of 31 µM.

As for `COc1cc2nccc(Oc3ccc(NC(=O)c4ccco4)cc3)c2cc1OC`, the IC50 in assay [1] is greater than 100 µM.

`COc1cccc(Oc2ccnc3cc(OC)c(OC)cc23)c1` showed an IC50 in assay [1] of 18 µM.

`COC(=O)c1cccc(Oc2ccnc3cc(OC)c(OC)cc23)c1` gave an IC50 in assay [1] greater than 100 µM.

Compound `COc1cc2nccc(Oc3ccc(C(=O)c4ccc(Cl)cc4)cc3)c2cc1OC` registered an IC50 in assay [1] greater than 100 µM.

`COc1cc2nccc(Oc3ccc(C(=O)c4ccc(I)cc4)cc3)c2cc1OC`: the IC50 in assay [1] is greater than 100 µM.

In the case of `COc1cc2nccc(Oc3ccc(C(=O)c4ccccc4)cc3)c2cc1OC`, the IC50 in assay [1] came out at 50 µM.

In assay [1], `COc1cc2nccc(Oc3ccc(NC(=O)c4ccc(-c5ccccc5)cc4)cc3)c2cc1OC` showed an IC50 greater than 100 µM.

In assay [1], `COc1cc2nccc(Oc3ccccc3C(=O)c3ccccc3)c2cc1OC` displayed an IC50 of 14 µM.

Take `COc1cc2nccc(Oc3cccc(N)c3)c2cc1OC`: in assay [1], the IC50 turned out to be 40 µM.

With `COc1cc2nccc(Oc3cccc(O)c3)c2cc1OC`, the IC50 in assay [1] is 19 µM.
